Data reported in article PMC6166229 (Journal of Medicinal Chemistry, 2018).

Assays:
MPS1 = target: T1, MPS1 (Homo sapiens, UniProt P33981); assay type: biochemical; settings: 2,2-dimethylazetidine 48 compared with neopentyl-like analogue (47)
T1 sequence (P33981 1-857): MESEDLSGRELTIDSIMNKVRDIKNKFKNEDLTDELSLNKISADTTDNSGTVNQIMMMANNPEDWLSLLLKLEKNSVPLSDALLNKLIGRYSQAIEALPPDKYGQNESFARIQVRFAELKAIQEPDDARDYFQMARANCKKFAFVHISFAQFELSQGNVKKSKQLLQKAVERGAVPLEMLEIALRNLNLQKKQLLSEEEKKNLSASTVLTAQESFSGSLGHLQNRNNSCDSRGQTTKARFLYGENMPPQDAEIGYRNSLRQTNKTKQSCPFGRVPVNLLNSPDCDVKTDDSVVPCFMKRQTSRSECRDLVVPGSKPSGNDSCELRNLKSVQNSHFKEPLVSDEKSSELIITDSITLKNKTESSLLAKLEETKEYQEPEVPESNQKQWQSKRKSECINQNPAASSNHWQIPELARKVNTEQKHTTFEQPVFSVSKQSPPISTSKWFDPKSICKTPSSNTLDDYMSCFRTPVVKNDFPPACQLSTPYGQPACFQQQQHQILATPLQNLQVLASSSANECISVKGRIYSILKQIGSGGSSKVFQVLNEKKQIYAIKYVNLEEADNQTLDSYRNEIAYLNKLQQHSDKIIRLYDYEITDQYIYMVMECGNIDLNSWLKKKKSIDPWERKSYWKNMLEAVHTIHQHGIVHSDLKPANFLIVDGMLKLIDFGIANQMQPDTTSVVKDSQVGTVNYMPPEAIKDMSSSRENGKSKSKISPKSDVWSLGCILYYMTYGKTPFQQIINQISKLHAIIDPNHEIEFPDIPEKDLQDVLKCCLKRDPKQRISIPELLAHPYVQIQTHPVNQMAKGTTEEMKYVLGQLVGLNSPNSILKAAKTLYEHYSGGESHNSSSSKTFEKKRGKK

[1] = Dog blood pharmacokinetics; assay type: in vivo; settings: whole blood, iv, 1 mg/kg
[2] = Microsomal clearance, human liver microsomes; assay type: in vitro ADME; settings: both, pH 7.4, Clint human

CCOc1cc(-c2nncn2C)ccc1Nc1ncc2cc(C)nc(N3CCC3(C)C)c2n1 [Compound 48, 8-(2,2-Dimethylazetidin-1-yl)-N-(2-ethoxy-4-(4-methyl-4H-1,2,4-triazol-3-yl)phenyl)-6-methylpyrido[3,4-d]pyrimidin-2-amine]
fold higher IC50 (MPS1): 40 fold

CCOc1cc(-c2nncn2C)ccc1Nc1ncc2cc(C)nc(NCC(C)(C)C)c2n1 [Compound 36, N^2-(2-Ethoxy-4-(4-methyl-4H-1,2,4-triazol-3-yl)phenyl)-6-methyl-N^8-neopentylpyrido[3,4-d]pyrimidine-2,8-diamine]
clearance [1]: 1.2 mL/min/kg

COc1cc(-c2cnc(C)n2C)ccc1Nc1ncc2ccnc(NCC(C)(C)C)c2n1 [Compound 16, N^2-(4-(1,2-Dimethyl-1H-imidazol-5-yl)-2-methoxyphenyl)-N^8-neopentylpyrido[3,4-d]pyrimidine-2,8-diamine]
microsomal CLint at 1 μM [2]: 79 µL/min/mg
